Series [1] is described as follows: In vitro liver microsome stability (DLM). The series is classed as in vitro ADME. The note with it: dog, dog liver microsomes, 0.5 mg/mL microsomes, NADPH, read-out: DLM, t1/2. As to the method: In vitro stability was determined in Human (HLM), Rat (RLM), Mouse (MsLM), and dog (DLM) Liver Microsomes. All liver microsomes were purchased from a commercial supplier (e.g. XenoTech). The reaction mixture, minus NADPH, was prepared as described below. The test compound was added into the reaction mixture at a final concentration of 1 μM or co-dosed with their deuterated analog(s) at 1 μM each. The control compound, testosterone, was run simultaneously with the test compound in a separate reaction. The reaction mixture (without cofactor) was equilibrated in a shaking water bath at 37° C. for 5 minutes. The reaction was initiated by the addition of the cofactor, and the mixture was incubated in a shaking water bath at 37° C. Aliquots (150 μL) were withdrawn at 0, 5, 10, 20, 30, 60, and 120 minutes. Test compound and testosterone samples were immediately combined with 150 μL of ice-cold acetonitrile (ACN) containing 0.1% formic acid and internal standard to terminate the reaction. The samples were then mixed and centrifuged to precipitate proteins. All samples were assayed by LC-MS/MS using electrospray ionization. […] Half-lives were calculated using GraphPad software, fitting to a single-phase exponential decay equation.
(Liver microsomes are vesicles of endoplasmic reticulum, rich in cytochrome P450 enzymes.)

Series [2] relates to C57BL/6J mice. The series can be described thus: HTR time course after s.c. administration in C57BL/6J mice. It is filed as in vivo, mouse. As to the method: 5-HT2 agonist activity and relative duration of action in vivo of test compounds were assessed using the HTR assay in male, adult C57BL/6J mice (Jackson Laboratories). Mice were housed in standard laboratory cages with ad libitum access to food and water, and were acclimated to the vivarium for at least one week prior to testing in a procedure room. On the day of testing, mice were acclimated to the procedure room in their home cages for ≥60 min before administration of test compounds. Mice were injected subcutaneously, placed immediately thereafter in a clear, polycarbonate box (46×20×20 cm), and HTRs were counted at 5, 10, 15, 40, 120, 160, 200, 240, 280, 320, 360, and 1440 min, using hand-held tally counters, by two trained observers who were blind to treatment.

For series [3], the system named is C57BL/6J mice. The series can be described thus: HTR after oral or s.c. administration in C57BL/6J mice. It is filed as in vivo, mouse. As to the method:
In another experiment, C57BL/6J mice were moved to the behavior room 30 min prior to administration of the test compound. Test compound was administered either s.c. or p.o. at 1 to 10 mg/kg immediately prior to testing and HTR activity was assessed from 1-30 min and again from 120-150 by blind experienced testers in real-time.

The structures appear in SMILES notation. Entries after “also recorded” stand apart in the source; their conditions may differ. Bounds are passed on as bounds.

Take `COc1cc(SC(F)(F)F)c(OC)cc1CCN` [Compound I-1, 2-(2,5-dimethoxy-4-((trifluoromethyl)thio)phenyl)ethan-1-amine]: the half-life at 1 μM in series [1] was above 120 min. Besides, the “HTR, dose-response” value with C57BL/6J mice [2] (0.1, 0.3, 1, 3 mg/kg s.c.) was “robust dose-dependent HTR”. For the same molecule, in the series with C57BL/6J mice [2] (DOI 1 mg/kg s.c.), the “HTR duration versus DOI” value is on record as “persisted longer”. For the same molecule, the “HTR after oral administration” value with C57BL/6J mice [3] (1, 3, 10 mg/kg p.o.) was “elicited the HTR; also recorded: dose-dependent increase in HTRs”. For the same molecule, in the series on C57BL/6J mice [3] (p.o.), the “HTR duration versus DOI, oral” value is “greater duration than DOI”.
